Laboratory results reported in patent US20230339886A1 (University of Florida Research Foundation, Incorporated, priority 2020, published 2023).

Molecular target: T1, REV-ERBα LBD (human; residues 281-614 Δ324-422) (Homo sapiens, UniProt P20393, DEL324-422)
T1 construct: 6×Histag-REV-ERBα LBD (human; residues 281-614 Δ324-422); made in house; host or cells: Escherichia coli
Assay: TR-FRET corepressor interaction assay (REV-ERBα LBD, FITC-SMRT peptide)
Type: biochemical
Conditions: Table 2, read-out: REVERBα agonism (EC50 class, FRET assay)
In short: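 Compound serial dilutions (in DMSO, triplicate) incubated 2 h at 4 °C; Tb donor excited at 340 nm, emission read at 495 nm and FITC acceptor at 520 nm. TR-FRET ratio (520/495 nm) plotted against ligand concentration and fitted to a sigmoidal dose-response curve.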

T1 sequence (P20393 with tags, fused parts or gaps DEL324-422): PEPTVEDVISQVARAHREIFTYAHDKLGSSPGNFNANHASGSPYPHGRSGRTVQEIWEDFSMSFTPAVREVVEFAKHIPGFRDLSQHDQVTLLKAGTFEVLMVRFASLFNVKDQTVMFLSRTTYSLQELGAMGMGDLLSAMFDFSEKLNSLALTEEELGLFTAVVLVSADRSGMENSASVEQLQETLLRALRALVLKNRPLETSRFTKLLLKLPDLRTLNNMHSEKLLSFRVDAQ
T1 sequence (Q9Y618 2335-2356 partner limits assumed): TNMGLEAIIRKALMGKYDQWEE

EC50 [nM]	Structure (SMILES)
500 to 3000	CC(C)(C)Cn1cc([C@H](NS(=O)(=O)C2CC2)C(F)(F)F)c2ccc(-c3cccc(F)c3C#N)cc21 [Example 386, (S)—N-(1-(6-(2-cyano-3-fluorophenyl)-1-neopentyl-1H-indol-3-yl)-2,2,2-trifluoroethyl)cyclopropanesulfonamide]
500 to 3000	CC(C)(C)Cn1cc([C@H](NS(=O)(=O)C2CC2)C(F)(F)F)c2ccc(-c3ccc(F)c(C#N)c3)cc21 [Example 387, (S)—N-(1-(6-(3-cyano-4-fluorophenyl)-1-neopentyl-1H-indol-3-yl)-2,2,2-trifluoroethyl)cyclopropanesulfonamide]
< 500	Cc1cccc(Cl)c1-c1ccc2c([C@H](NS(=O)(=O)C3CC3)C(F)(F)F)cn(CC(C)(C)C)c2c1 [Example 388, (S)—N-(1-(6-(2-chloro-6-methylphenyl)-1-neopentyl-1H-indol-3-yl)-2,2,2-trifluoroethyl)cyclopropanesulfonamide]
< 500	CC(C)(C)Cn1cc([C@H](NS(=O)(=O)C2CC2)C(F)(F)F)c2ccc(-c3c(C#N)cccc3C(F)(F)F)cc21 [Example 389, (S)—N-(1-(6-(2-cyano-6-(trifluoromethyl)phenyl)-1-neopentyl-1H-indol-3-yl)-2,2,2-trifluoroethyl)cyclopropanesulfonamide]
< 500	Cc1cccc(C#N)c1-c1ccc2c([C@H](NS(=O)(=O)C3CC3)C(F)(F)F)cn(CC(C)(C)C)c2c1 [Example 390, (S)—N-(1-(6-(2-cyano-6-methylphenyl)-1-neopentyl-1H-indol-3-yl)-2,2,2-trifluoroethyl)cyclopropanesulfonamide]
< 500	COC(C)(C)Cn1cc([C@H](NS(=O)(=O)C2CCC2)C(F)(F)F)c2cc(F)c(-c3ccccc3C(F)(F)F)cc21 [Example 391, N-[(1S)-2,2,2-trifluoro-1-[5-fluoro-1-(2-methoxy-2-methyl-propyl)-6-[2-(trifluoromethyl)phenyl]indol-3-yl]ethyl]cyclobutanesulfonamide]
< 500	N#CC1(Cn2cc([C@H](NS(=O)(=O)C3CCC3)C(F)(F)F)c3cc(F)c(-c4ccccc4C(F)(F)F)cc32)CC1 [Example 392, [(1S)-1-[1-[(1-cyanocyclopropyl)methyl]-5-fluoro-6-[2-(trifluoromethyl)phenyl]indol-3-yl]-2,2,2-trifluoro-ethyl]cyclobutanesulfonamide]
500 to 3000	CC(C)(C)Cn1cc(CCNS(=O)(=O)C2CC2)c2ccc(-c3cccc(F)c3C(F)(F)F)cc21 [Example 393, N-(2-(6-(3-fluoro-2-(trifluoromethyl)phenyl)-1-neopentyl-1H-indol-3-yl)ethyl)cyclopropanesulfonamide]
< 500	CC(C)(C)Cn1cc(CCNS(=O)(=O)C2CC2)c2ccc(-c3ccc(Cl)cc3C(F)(F)F)cc21 [Example 394, N-(2-(6-(4-chloro-2-(trifluoromethyl)phenyl)-1-neopentyl-1H-indol-3-yl)ethyl)cyclopropanesulfonamide]
< 500	CC(C)(C)Cn1cc(CCNS(=O)(=O)C2CC2)c2ccc(-c3ccc(F)cc3C(F)(F)F)cc21 [Example 395, N-(2-(6-(4-fluoro-2-(trifluoromethyl)phenyl)-1-neopentyl-1H-indol-3-yl)ethyl)cyclopropanesulfonamide]
< 500	CC(C)(C)Cn1cc(CCNS(=O)(=O)C2CC2)c2ccc(-c3ccc(C(F)(F)F)cc3Cl)cc21 [Example 396, N-(2-(6-(2-chloro-4-(trifluoromethyl)phenyl)-1-neopentyl-1H-indol-3-yl)ethyl)cyclopropanesulfonamide]
< 500	CC(C)(C)Cn1cc(CCNS(=O)(=O)C2CC2)c2ccc(-c3ccc(Cl)cc3Cl)cc21 [Example 397, N-(2-(6-(2,4-dichlorophenyl)-1-neopentyl-1H-indol-3-yl)ethyl)cyclopropanesulfonamide]
< 500	Cc1ccc(-c2ccc3c(CCNS(=O)(=O)C4CC4)cn(CC(C)(C)C)c3c2)c(C(F)(F)F)c1 [Example 398, N-(2-(6-(4-methyl-2-(trifluoromethyl)phenyl)-1-neopentyl-1H-indol-3-yl)ethyl)cyclopropanesulfonamide]
> 3000	CC(C)(C)Cn1cc(CCNS(=O)(=O)C2CC2)c2ccc(-c3cccc(C(F)(F)F)c3C#N)cc21 [Example 399, N-(2-(6-(2-cyano-3-(trifluoromethyl)phenyl)-1-neopentyl-1H-indol-3-yl)ethyl)cyclopropanesulfonamide]

Continued, compound first:

Structure (SMILES)	EC50 [nM]
CC(C)(C)Cn1cc([C@H](NS(=O)(=O)C2CC2)C(F)(F)F)c2ccc(-c3ccc(F)cc3C(F)(F)F)cc21 [Example 367, (S)—N-(2,2,2-trifluoro-1-(6-(4-fluoro-2-(trifluoromethyl)phenyl)-1-neopentyl-1H-indol-3-yl)ethyl)cyclopropanesulfonamide]	< 500
Cc1c(Br)ccc2c([C@H](NS(=O)(=O)C3CC3)C(F)(F)F)cn(CC(C)(C)C)c12 [Example 368, (S)—N-(1-(6-bromo-7-methyl-1-neopentyl-1H-indol-3-yl)-2,2,2-trifluoroethyl)cyclopropanesulfonamide]	500 to 3000
CC(C)(C)Cn1cc([C@H](NS(=O)(=O)C2CC2)C(F)(F)F)c2ccc(Br)c(F)c21 [Example 369, (S)—N-(1-(6-bromo-7-fluoro-1-neopentyl-1H-indol-3-yl)-2,2,2-trifluoroethyl)cyclopropanesulfonamide]	500 to 3000
CC(C)Cn1cc([C@H](NS(=O)(=O)C2CC2)C(F)(F)F)c2ccc(-c3ccnn3C)cc21 [Example 370, (S)—N-(2,2,2-trifluoro-1-(1-isobutyl-6-(1-methyl-1H-pyrazol-5-yl)-1H-indol-3-yl)ethyl)cyclopropanesulfonamide]	< 500
CNS(=O)(=O)N[C@@H](c1cn(CC(C)(C)C)c2cc(-c3ccccc3C(F)(F)F)c(F)cc12)C(F)(F)F [Example 371]	500 to 3000
CC(C)(C)Cn1cc([C@H](NS(=O)(=O)C2CCCC2)C(F)(F)F)c2cc(F)c(-c3ccccc3C(F)(F)F)cc21 [Example 372, (S)—N-(2,2,2-trifluoro-1-(5-fluoro-1-neopentyl-6-(2-(trifluoromethyl)phenyl)-1H-indol-3-yl)ethyl)cyclopentanesulfonamide]	500 to 3000
CC(C)(C)Cn1cc([C@H](NS(=O)(=O)C2CC2)C(F)(F)F)c2ccc(-c3c(F)cccc3C(F)(F)F)cc21 [Example 373, (S)—N-(2,2,2-trifluoro-1-(6-(2-fluoro-6-(trifluoromethyl)phenyl)-1-neopentyl-1H-indol-3-yl)ethyl)cyclopropanesulfonamide]	< 500
CC(C)(C)Cn1cc([C@H](NS(=O)(=O)C2CCC2)C(F)(F)F)c2cc(F)c(-c3ccccc3C(F)(F)F)cc21 [Example 374, (S)—N-(2,2,2-trifluoro-1-(5-fluoro-1-neopentyl-6-(2-(trifluoromethyl)phenyl)-1H-indol-3-yl)ethyl)cyclobutanesulfonamide]	< 500
CC(C)(C)Cn1cc([C@H](NS(=O)(=O)C2(C)CC2)C(F)(F)F)c2cc(F)c(-c3ccccc3C(F)(F)F)cc21 [Example 375, (S)-1-methyl-N-(2,2,2-trifluoro-1-(5-fluoro-1-neopentyl-6-(2-(trifluoromethyl)phenyl)-1H-indol-3-yl)ethyl)cyclopropane-1-sulfonamide]	< 500
CC(C)(C)Cn1cc([C@H](NS(=O)(=O)C2CC2)C(F)(F)F)c2cc(C(F)(F)F)c(Br)cc21 [Example 376, (S)—N-(1-(6-bromo-1-neopentyl-5-(trifluoromethyl)-1H-indol-3-yl)-2,2,2-trifluoroethyl)cyclopropanesulfonamide]	> 3000
CC(C)Cn1cc([C@H](NS(=O)(=O)C2CC2)C(F)(F)F)c2cc(F)c(-c3ccn[nH]3)cc21 [Example 377, (S)—N-(2,2,2-trifluoro-1-(5-fluoro-1-isobutyl-6-(1H-pyrazol-5-yl)-1H-indol-3-yl)ethyl)cyclopropanesulfonamide]	500 to 3000
CC(C)(C)Cn1cc([C@H](NS(=O)(=O)C2CC2)C(F)(F)F)c2cc(F)c(-c3ccn[nH]3)cc21 [Example 380, N-[(1S)-1-[1-(2,2-dimethylpropyl)-5-fluoro-6-(1H-pyrazol-5-yl)indol-3-yl]-2,2,2-trifluoro-ethyl]cyclopropanesulfonamide]	< 500
Cc1cn[nH]c1-c1cc2c(cc1F)c([C@H](NS(=O)(=O)C1CC1)C(F)(F)F)cn2CC(C)(C)C [Example 381, N-[(1S)-1-[1-(2,2-dimethylpropyl)-5-fluoro-6-(4-methyl-1H-pyrazol-5-yl)indol-3-yl]-2,2,2-trifluoro-ethyl]cyclopropanesulfonamide]	500 to 3000
CC(C)(C)Cn1cc([C@H](NS(=O)(=O)C2CC2)C(F)(F)F)c2ccc(-c3ncccn3)cc21 [Example 382, (S)—N-(2,2,2-trifluoro-1-(1-neopentyl-6-(pyrimidin-2-yl)-1H-indol-3-yl)ethyl)cyclopropanesulfonamide]	500 to 3000
CC(C)(C)Cn1cc([C@H](NS(=O)(=O)C2CC2)C(F)(F)F)c2ccc(-c3cccnc3)cc21 [Example 383, (S)—N-(2,2,2-trifluoro-1-(1-neopentyl-6-(pyridin-3-yl)-1H-indol-3-yl)ethyl)cyclopropanesulfonamide]	500 to 3000
CC(C)(C)Cn1cc([C@H](NS(=O)(=O)C2CC2)C(F)(F)F)c2ccc(-c3ccncc3C#N)cc21 [Example 384, (S)—N-(1-(6-(3-cyanopyridin-4-yl)-1-neopentyl-1H-indol-3-yl)-2,2,2-trifluoroethyl)cyclopropanesulfonamide]	< 500
Cc1nc2ccccn2c1-c1ccc2c([C@H](NS(=O)(=O)C3CC3)C(F)(F)F)cn(CC(C)(C)C)c2c1 [Example 385, (S)—N-(2,2,2-trifluoro-1-(6-(2-methylimidazo[1,2-a]pyridin-3-yl)-1-neopentyl-1H-indol-3-yl)ethyl)cyclopropanesulfonamide]	500 to 3000
